Data set [1] can be described thus: Oxidation in UV light: change in the UV spectrum on irradiation. In kind it is physicochemical. Here is the method: The curves stand for the unirradiated substance (exposed to 0 kJ/m^2), after irradiation for 15 min (exposure to 86 kJ/m^2), after irradiation for 65 min (exposure to 373 kJ/m^2), after irradiation for 235 min (exposure to 1349 kJ/m^2) and after irradiation for 405 min (exposure to 2325 kJ/m^2).

A short description of data set [2]: Oxidation in UV light in the presence of further antioxidants: UV/VIS spectrum of beta-carotene emulsions on irradiation.

In the case of `CCCCC(CC)COC(=O)C(Cc1cc(OC)c(O)c(OC)c1)C(=O)OCC(CC)CCCC` (stereo not shown), the “UV absorption in the UV-A region on irradiation with UV light” value in data set [1] (after irradiation for 65 min (373 kJ/m^2), xenon lamp 95.69 W/m^2, 290-400 nm, increases further on longer irradiation) is on record as “significantly increased UV absorption”. In data set [1] (neat substance, after UV irradiation), the “Emax of the UV-A absorption developed on irradiation” value was 320-340 nm. Further, in data set [2] (emulsion with 0.5% beta-carotene and 4% compound vs emulsion without compound, irradiated 90 min, beta-carotene absorption at 440-480 nm), the “effect on beta-carotene degradation in the emulsion on UV irradiation” value is listed as “stabilises the beta-carotene”. The “Emax of the absorption of the reaction product in the UV-A region” value in data set [2] (emulsion with 0.5% by weight beta-carotene and 4% by weight compound, irradiated 90 min (curve B)) is 320-340 nm.
